Key:
[1] = system: mononucleates (lymphocytes) of peripheral blood; assay: Blastoid-transformation of rat lymphocytes in peripheral blood, 3H-TdR uptake (Example 13); type: in vivo
Procedure: The effect of the present compound on the blastoid-transformation of rat lymphocytes in the peripheral blood was examined as follows: After mixing each of the blood specimens taken from the respective rats of the four groups in Example 11 added with heparin and RPMI-1640 culture medium at a weight ratio of 1:1, the mixture was added to Ficoll-Paque solution, and the thus obtained mixture was subjected to centrifugal separation at 400 G for 20 min to collect the layer of mononucleates. After washing the thus collected mononucleates three times with PRMI-1640 culture medium (in a liquid state), the washed mononucleates were suspended into RPMI-1640 culture medium added with 10% by weight of calf serum to be in concentration of 1.5×10^6 cells/ml. Hundred microliters of the thus prepared suspension was placed in the pit of Pharcon microtest II plate, and after adding a substance promoting cell division (hereinafter referred to as mitogen) and RPMI-1640 culture medium added with 10% by weight of calf serum to the thus placed suspension to make the total volume 200 microliters, the thus prepared mixture was incubated for 72 hours under a gas (a 95:5 by volume mixture of air and carbon dioxide saturated with moisture) flow at 37° C. ^3 H-methylthymidine of specific activity of 5 Ci/mmol was added to the mixture during incubation at the time 24 hours before the incubation was over in an amount corresponding to 0.5 micro Ci. After the incubation was over, the cells in the culture were collected by filtering the cultured mixture, and the amount of radioactive isotope uptaken into the cells was determined by a liquid scintillation counter. For reference, the mitogen used in the present test is concanavalin A for T-cell or lipopolysaccharide for B-cell.

calcium level in serum [2] = assay: Serum calcium in patient with hyperparathyroidism accompanied by hypercalcemia (Example 6); type: in vivo, human; details: person seventeen, 10 µg/day oral
Description: The thus prepared capsule composition was tentatively applied to the following two cases of human hyperparathyroidism accompanied by hypercalcemia:
To patient seventeen suffering from hyperparathyroidism accompanied by hypercalcemia, one of the capsule composition prepared as above containing 1 microgram of the active ingredient in one capsule was orally administered at a daily dose of 10 micrograms of 24R,25-(OH)2 -D3 for continuous 4 days.

calcium level in serum [3] = assay: Serum calcium in rats transplanted with Walker-carcinosarcoma 256 (Example 5); type: in vivo, Sprague-Dawley rat
Procedure: After injecting 0.5 ml of ascites of Walker-carcinosarcoma 256 adjusted to contain 2×10^6 tumour cells per microliter into the upper part of the right thigh of a Sprague-Dawley rat of body weight of 90-140 g, a solution of 24R,25-(OH)2 -D3 in the triglyceride ester used in Example 1 at a concentration of 0.5 microgram/100 microliter was orally administered once a day for continuous 7 days at a daily dose rate of 20 micrograms of 24R,25-(OH)2 -D3 per kg body weight of the rat. […] The blood specimen was also collected in the same manner from a rat of the same strain injected with the ascites in the same manner as in the first rat, however, only administered with the triglyceride ester. The two levels of calcium in the respective sera of the two groups were compared in Table 5.

[4] = system: lymphocytes from a healthy person; assay: Effect of plasma of treated renal failure/uremia patients on blastoid-transformation of lymphocytes from a healthy person (Example 14); type: cell-based, human; details: 0.5 to 1.0 µg/day oral, 1 to 6 months
Description: Effects of plasma derived from a patient suffering from chronic renal failure or uremia treated with the present compound or not treated therewith on blastoid-transformation of lymphocytes from a healthy person Heparinized fresh peripheral blood of a normal person was mixed with Ficoll-Paque solution, and after subjecting the mixture to ultracentrifugal separation, the layer of lymphocyte was collected, and after washing the layer three times with phosphate buffer solution, the washed lymphocytes were dispersed in suspension in RPMI-1640 culture medium (liquid) at a concentration of 6×10^5 cells/ml. […] Then, the specimen was harvested to determine the uptake of ^3 H-TdR by the lymphocytes. In addition, the plasma of each patient was collected two times, namely, once before hemodialysis and once after hemodialysis, and accordingly the total patient system of the present test consists of two large groups one of which is administered and the other of which is not administered with the compound, and each large group consists of two groups one of which is not yet hemodialysed and the other of which has been already hemodialysed.

calcium level in serum [5] = assay: Serum calcium in patient with sarcoidosis accompanied by hypercalcemia (Example 8); type: in vivo, human; details: person two
Procedure: To patient two diagnosed to be sarcoidosis accompanied by hypercalcemia of the calcium level in their serum of 14.0 mg/dl, the capsule composition similar to that prepared in Example 6 was administered orally at a daily dose of two capsules each containing 5 micrograms of 24R,25-(OH)2 -D3 for continuous 5 days. The calcium level in serum from the blood specimen collected on the sixth day of the commencement of the treatment was 10.8 mg/dl.

[6] = Acute oral mammalian toxicity; design: species or system male mouse of ICR-strain; details: mouse, in vivo, read-out: LD50 (per os)
Procedure: 0.3 ml of ethanolic solution containing 150 mg of 24R,25-(OH)2 -D3 was suspended in 15 ml of Panacete® 810 (triglyceride ester of C8 and C10 -fatty acid, made by Nippon Oil & Fats Co., Ltd.) to obtain a suspension containing 2% by weight of ethanol. The thus prepared composition was orally administered to a group of male mouse of ICR-strain consisting of 10 animals at a dose rate of 150 mg of 24R,25-(OH)2 -D3 per kg.

[7] = 100 µg/kg/day oral 12 days with puromycin aminonucleoside

With `C=C1CC[C@H](O)C/C1=C/C=C1\CCC[C@]2(C)[C@@H]([C@H](C)CC[C@@H](O)C(C)(C)O)CC[C@@H]12` [24R,25-(OH)2 -D3] the “Uptake of 3H-TdR in presence of Concanavalin A” value [1, 7] was 3995 ± 412 cpm, the “Uptake of 3H-TdR in presence of Lipopolysaccharide” value [1, 7] was 3568 ± 372 cpm and the “Number of mononucleate (ratio, first group = 1.00)” value ([1]; po, 0.1 mg/kg, 288 h) was 0.68 ± 0.17. For the same compound, the “calcium level in serum after administration for 4 days” value (calcium level in serum [2]) was 10.8 mg/dL, the “Calcium level in serum after one week of transplantation” value (calcium level in serum [3]; 20 µg/kg/day oral, 7 days) was 11.2 ± 0.6 mg/dL and the “Calcium level in serum before transplantation” value (calcium level in serum [3]; before transplantation (baseline)) was 10.5 ± 0.3 mg/dL. For the same compound, the “Uptake of 3H-TdR in the presence of lectin from kidney beans” value ([4]; after hemodialysis) was 222480 ± 21253 cpm, the “Uptake of 3H-TdR in the presence of lipopolysaccharide” value ([4]; after hemodialysis) was 129984 ± 51385 cpm and the “Uptake of 3H-TdR in the presence of lectin from kidney beans” value ([4]; before hemodialysis) was 228906 ± 19081 cpm. The “Uptake of 3H-TdR in the presence of lipopolysaccharide” value ([4]; before hemodialysis) was 158950 ± 48245 cpm, the “calcium level in serum before treatment” value (calcium level in serum [5]; baseline) was 14.0 mg/dL and the “calcium level in serum on the sixth day” value (calcium level in serum [5]; two 5 µg capsules/day oral, 5 days) was 10.8 mg/dL. The LD50 at 336 h [6] was > 150 mg/kg.

Source: US4442093A, “Method for administering 24,25-dihydroxycholecalciferol to persons suffering from hypercalcemia” (Kureha Kagaku Kogyo Kabushiki Kaisha, priority 1981, dated 1984)
